Reference: PubChem BioAssay (NCI)
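Briefly, cells in 96-well plates were exposed to five compound concentrations for 48 h, and endpoints were estimated by linear interpolation. GI50: concentration for 50% inhibition of growth. Definition used: TGI = concentration required for complete inhibition of growth.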

Columns and labels:
Experiment in all cases: NCI anticancer screen, dose series, 48 h
786-0 renal = system: 786-0 renal
A498 renal = system: A498 renal
A549 NSCLC = system: A549 NSCLC
ACHN renal = system: ACHN renal
BT-549 breast = system: BT-549 breast
CAKI-1 renal = system: CAKI-1 renal
CCRF-CEM leukemia = system: CCRF-CEM leukemia
COLO 205 colon = system: COLO 205 colon
DU-145 prostate = system: DU-145 prostate
EKVX NSCLC = system: EKVX NSCLC
HCC-2998 colon = system: HCC-2998 colon
HCT-116 colon = system: HCT-116 colon
HL-60(TB) leukemia = system: HL-60(TB) leukemia
HOP-62 NSCLC = system: HOP-62 NSCLC
HOP-92 NSCLC = system: HOP-92 NSCLC
HS 578T breast = system: HS 578T breast
IGROV1 ovarian = system: IGROV1 ovarian
K-562 leukemia = system: K-562 leukemia
KM12 colon = system: KM12 colon
LOX IMVI melanoma = system: LOX IMVI melanoma
M14 melanoma = system: M14 melanoma
MCF7 breast = system: MCF7 breast
MDA-MB-231 breast = system: MDA-MB-231 breast
MDA-MB-435 = system: MDA-MB-435
MOLT-4 leukemia = system: MOLT-4 leukemia
NCI-H226 lung = system: NCI-H226 lung
NCI-H23 lung = system: NCI-H23 lung
NCI-H460 lung = system: NCI-H460 lung
NCI-H522 lung = system: NCI-H522 lung
NCI/ADR-RES ovarian = system: NCI/ADR-RES ovarian
OVCAR-3 ovarian = system: OVCAR-3 ovarian
OVCAR-4 ovarian = system: OVCAR-4 ovarian
OVCAR-5 ovarian = system: OVCAR-5 ovarian
OVCAR-8 ovarian = system: OVCAR-8 ovarian
PC-3 prostate = system: PC-3 prostate
RPMI-8226 leukemia = system: RPMI-8226 leukemia
RXF 393 renal = system: RXF 393 renal
SF-268 CNS = system: SF-268 CNS
SF-295 CNS = system: SF-295 CNS
SF-539 CNS = system: SF-539 CNS
SK-MEL-2 melanoma = system: SK-MEL-2 melanoma
SK-MEL-28 melanoma = system: SK-MEL-28 melanoma
SK-MEL-5 melanoma = system: SK-MEL-5 melanoma
SN12C renal = system: SN12C renal
SNB-19 CNS = system: SNB-19 CNS
SNB-75 CNS = system: SNB-75 CNS
SR leukemia = system: SR leukemia
SW-620 colon = system: SW-620 colon
T-47D breast = system: T-47D breast
TK-10 renal = system: TK-10 renal
UACC-257 melanoma = system: UACC-257 melanoma
UACC-62 melanoma = system: UACC-62 melanoma
UO-31 renal = system: UO-31 renal

CCOC(=O)/C=C/C1=C(c2csc3ccccc23)c2ccccc2CC1
GI50 (786-0 renal): 57 µM
TGI (786-0 renal): > 100 µM
GI50 (A498 renal): 55.4 µM
TGI (A498 renal): > 100 µM
GI50 (A549 NSCLC): 31.1 µM
TGI (A549 NSCLC): > 100 µM
GI50 (ACHN renal): 30.2 µM
TGI (ACHN renal): > 100 µM
GI50 (BT-549 breast): 99.3 µM
TGI (BT-549 breast): > 100 µM
GI50 (CAKI-1 renal): 14.8 µM
TGI (CAKI-1 renal): 57.9 µM
GI50 (CCRF-CEM leukemia): 27.9 µM
TGI (CCRF-CEM leukemia): > 100 µM
GI50 (COLO 205 colon): 18.8 µM
TGI (COLO 205 colon): 53.9 µM
GI50 (DU-145 prostate): 54.9 µM
TGI (DU-145 prostate): > 100 µM
GI50 (EKVX NSCLC): 54.2 µM
TGI (EKVX NSCLC): > 100 µM
GI50 (HCC-2998 colon): 55.5 µM
TGI (HCC-2998 colon): > 100 µM
GI50 (HCT-116 colon): 24.6 µM
TGI (HCT-116 colon): 70.9 µM
GI50 (HL-60(TB) leukemia): 32.4 µM
TGI (HL-60(TB) leukemia): > 100 µM
GI50 (HOP-62 NSCLC): 41.6 µM
TGI (HOP-62 NSCLC): > 100 µM
GI50 (HOP-92 NSCLC): 48.6 µM
TGI (HOP-92 NSCLC): > 100 µM
GI50 (HS 578T breast): 52.7 µM
TGI (HS 578T breast): > 100 µM
GI50 (IGROV1 ovarian): 25.5 µM
TGI (IGROV1 ovarian): > 100 µM
GI50 (K-562 leukemia): 23.2 µM
TGI (K-562 leukemia): > 100 µM
GI50 (KM12 colon): 12.7 µM
TGI (KM12 colon): 56.4 µM
GI50 (LOX IMVI melanoma): 30.6 µM
TGI (LOX IMVI melanoma): > 100 µM
GI50 (M14 melanoma): 29.7 µM
TGI (M14 melanoma): > 100 µM
GI50 (MCF7 breast): 66.3 µM
TGI (MCF7 breast): > 100 µM
GI50 (MDA-MB-231 breast): 34.9 µM
TGI (MDA-MB-231 breast): > 100 µM
GI50 (MDA-MB-435): 4.34 µM
TGI (MDA-MB-435): 25.7 µM
GI50 (MOLT-4 leukemia): 32.2 µM
TGI (MOLT-4 leukemia): > 100 µM
GI50 (NCI-H226 lung): > 100 µM
TGI (NCI-H226 lung): > 100 µM
GI50 (NCI-H23 lung): > 100 µM
TGI (NCI-H23 lung): > 100 µM
GI50 (NCI-H460 lung): 37.5 µM
TGI (NCI-H460 lung): > 100 µM
GI50 (NCI-H522 lung): 27.6 µM
TGI (NCI-H522 lung): > 100 µM
GI50 (NCI/ADR-RES ovarian): 38.7 µM
TGI (NCI/ADR-RES ovarian): > 100 µM
GI50 (OVCAR-3 ovarian): 27.4 µM
TGI (OVCAR-3 ovarian): > 100 µM
GI50 (OVCAR-4 ovarian): 11.6 µM
TGI (OVCAR-4 ovarian): 48.8 µM
GI50 (OVCAR-5 ovarian): > 100 µM
TGI (OVCAR-5 ovarian): > 100 µM
GI50 (OVCAR-8 ovarian): 79 µM
TGI (OVCAR-8 ovarian): > 100 µM
GI50 (PC-3 prostate): 19.8 µM
TGI (PC-3 prostate): > 100 µM
GI50 (RPMI-8226 leukemia): 22.6 µM
TGI (RPMI-8226 leukemia): > 100 µM
GI50 (RXF 393 renal): 33.7 µM
TGI (RXF 393 renal): > 100 µM
GI50 (SF-268 CNS): 28.2 µM
TGI (SF-268 CNS): 90 µM
GI50 (SF-295 CNS): 18.4 µM
TGI (SF-295 CNS): 88.4 µM
GI50 (SF-539 CNS): > 100 µM
TGI (SF-539 CNS): > 100 µM
GI50 (SK-MEL-2 melanoma): > 100 µM
TGI (SK-MEL-2 melanoma): > 100 µM
GI50 (SK-MEL-28 melanoma): 32 µM
TGI (SK-MEL-28 melanoma): > 100 µM
GI50 (SK-MEL-5 melanoma): 28.5 µM
TGI (SK-MEL-5 melanoma): > 100 µM
GI50 (SN12C renal): 73.7 µM
TGI (SN12C renal): > 100 µM
GI50 (SNB-19 CNS): 21.3 µM
TGI (SNB-19 CNS): 80.9 µM
GI50 (SNB-75 CNS): 15.2 µM
TGI (SNB-75 CNS): 74.4 µM
GI50 (SR leukemia): 15.4 µM
TGI (SR leukemia): 48.8 µM
GI50 (SW-620 colon): 31.8 µM
TGI (SW-620 colon): > 100 µM
GI50 (T-47D breast): 12.3 µM
TGI (T-47D breast): 55.5 µM
GI50 (TK-10 renal): 16.6 µM
TGI (TK-10 renal): 61.7 µM
GI50 (UACC-257 melanoma): 23.4 µM
TGI (UACC-257 melanoma): 82.6 µM
GI50 (UACC-62 melanoma): 23.6 µM
TGI (UACC-62 melanoma): > 100 µM
GI50 (UO-31 renal): 58.1 µM
TGI (UO-31 renal): > 100 µM
